Assay results published in patent US20100160369A1, “S1P1 Agonists and Methods of Making And Using” (EXELIXIS, INC., priority 2008, published 2010).

Legend:
S1P1 [1] = target: T1, S1P1 (Homo sapiens, UniProt P21453); experiment: Tango β-arrestin Recruitment Assay in HEK293 cells (Assay 2a); format: cell-based; set-up: linker with TEV protease (N1a) cleavage site (C); host or cells: HEK293, transiently transfected; settings: Tango β-arrestin Recruitment Assay, read-out: Assay 2a EC50
Procedure, shortened: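 HEK293 cells transiently expressing S1P1 (TEV-cleavable tTA fusion) with β-arrestin2–TEV; compounds up to 10 μM, 10-point 3-fold, 1% DMSO, 30 min then 16–18 h at 37 °C. Luciferase luminescence normalised to 5 μM S1P as 100% and DMSO as background; EC50 from percent-activity curves.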
Target sequence in this assay (P21453 whole entry, the tested form may be a part): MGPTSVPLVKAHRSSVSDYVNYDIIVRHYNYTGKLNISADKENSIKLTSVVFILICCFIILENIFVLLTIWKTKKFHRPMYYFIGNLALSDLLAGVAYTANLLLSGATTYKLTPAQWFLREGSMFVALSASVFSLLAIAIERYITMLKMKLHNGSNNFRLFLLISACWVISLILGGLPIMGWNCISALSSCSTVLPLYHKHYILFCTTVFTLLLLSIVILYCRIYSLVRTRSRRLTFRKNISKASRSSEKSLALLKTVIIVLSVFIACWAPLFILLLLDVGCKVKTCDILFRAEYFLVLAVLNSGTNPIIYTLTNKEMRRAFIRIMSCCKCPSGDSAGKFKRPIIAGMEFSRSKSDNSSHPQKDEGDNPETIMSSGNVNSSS
Target sequence in this assay (P32121 whole entry partner, the tested form may be a part): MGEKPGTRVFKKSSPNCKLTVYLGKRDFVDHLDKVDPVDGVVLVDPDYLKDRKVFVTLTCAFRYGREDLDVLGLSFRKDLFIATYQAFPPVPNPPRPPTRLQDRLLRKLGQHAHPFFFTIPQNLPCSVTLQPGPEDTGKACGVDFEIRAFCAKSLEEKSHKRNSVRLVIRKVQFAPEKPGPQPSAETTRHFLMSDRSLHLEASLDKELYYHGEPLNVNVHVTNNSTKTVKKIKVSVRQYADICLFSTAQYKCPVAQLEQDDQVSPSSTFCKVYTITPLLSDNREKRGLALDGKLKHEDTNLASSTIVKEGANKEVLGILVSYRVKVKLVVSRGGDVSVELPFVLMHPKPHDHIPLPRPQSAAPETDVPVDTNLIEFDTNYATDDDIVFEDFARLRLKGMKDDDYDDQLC

S1P1 [2] = target: T1, S1P1; experiment: CNG cAMP Assay (Assay 1); format: cell-based; set-up: host or cells: HEK293 cells expressing the CNG channel; settings: read-out: Assay 1 EC50
Procedure, shortened: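 HEK293 cells expressing CNG channel and S1P1, membrane-potential dye loaded; compounds (top 10 μM, 10-point 3-fold, 1.8% DMSO) added with 25 μM Ro 20-1724, 500 nM NECA and 10 nM S1P for 90 min. T90/T0 fluorescence (Ex 350/Em 590 nm) normalised to NECA-alone vs DMSO; EC50 fitted.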
Target sequence in this assay (P21453 whole entry, the tested form may be a part): as the sequence (P21453 whole entry, the tested form may be a part) above

hS1P1R (hEdg1) = target: T2, hS1P1R (hEdg1) (Homo sapiens, UniProt P21453); experiment: hS1P1R GTPγS Binding Assay (Assay 3a); format: biochemical
T2 construct: purchased Lonza
T2 sequence (P21453 whole entry): as the sequence (P21453 whole entry, the tested form may be a part) above
Procedure, shortened: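 Human S1P1 receptor membranes (4 μg) incubated 1 h at room temperature with 30 μM GDP, 0.1 nM [35S]GTPγS, 0.25% fatty-acid-free BSA and serially diluted agonist in pH 7.9 Tris buffer with Mg2+ and EGTA. Bound radioactivity read by WGA SPA after a further 1 h; EC50 reported unless noted.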

S1P1 [3] = target: T1, S1P1; experiment: DELFIA GTP-Eu Binding Assay (Assay 3b); format: biochemical; set-up: purchased Lonza; host or cells: CHO cell membranes
Method: The DELFIA GTP-Eu binding assay (PerkinElmer) is a time-resolved fluorometric assay based on GDP-GTP exchange. CHO cell membranes (Lonza) expressing human S1P1 were incubated in 96-well filter plates (Pall, East Hills, N.Y.) in a final volume of 100 μL/well buffer containing 40 μg/mL membrane, 50 mM HEPES, 2 μM GDP, 10 mM MgCl2, 100 mM NaCl, 500 μg/mL Saponin and test compound. Test compounds were tested at maximum concentrations of 10 μM. Compounds were diluted (10 concentration points, 3-fold each) and added to the assay plate at a 1% final DMSO concentration. For each compound, there were duplicate assay plates and each assay plate had duplicate wells per concentration point. The plates were incubated for 30 min at room temperature on a plate shaker at low speed. GTP-Eu was added to each well (10 μL, 10 nM final concentration) and the plate was incubated for an additional 30 min with slow shaking The wells were washed with ice cold GTP washing buffer (3×150 μL) using a vacuum manifold and the assay plates read in an EnVision plate reader (PerkinElmer) at an excitation wavelength of 340 nm and an emission wavelength of 615 nm. To determine agonist activity, percent activity was calculated as [(test compound−background)/(positive control−background)*100], where background is the fluorescence in absence of compound and the positive control is the fluorescence from membranes incubated with 1 μM S1P (Avanti). The percent activities were plotted against compound concentration to determine IC50 or EC50 using XLFit (IDBS).
Assay 1 is the CNG cAMP Assay as described in Biological Example 1. Assay 2a and 2b are the Tango™ β-arrestin Recruitment Assay in HEK293 and U2OS cells, respectively, as described in Biological Example 2. Assay 3a is the hS1P1R GTPγS Binding Assay as described in Biological Example 3. Assay 3b is the GTP-Eu Binding Assay as described in Biological Example 3. EC50's were measured unless otherwise noted. […] In the table, “nt” means the Compound was not tested and “no” means the compound was tested but had no measurable activity under the assay conditions employed.
Target sequence in this assay (P21453 whole entry, the tested form may be a part): as above

S1P1 [4] = target: T1, S1P1; experiment: Tango β-arrestin Recruitment Assay in U2OS cells (Assay 2b); format: cell-based; set-up: linker with TEV protease (N1a) cleavage site (C); settings: Tango β-arrestin Recruitment Assay, read-out: Assay 2b EC50
Procedure, shortened: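 U2OS cells expressing S1P1 and reporter, serum-starved 48 h, treated with compound (10-point 3-fold series, top 1 μM, 1% DMSO) overnight at 37 °C; β-lactamase substrate added 2 h at room temperature. F460/F530 ratio normalised to 1 μM S1P (100%) and DMSO; EC50 from concentration-response.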
Target sequence in this assay (P21453 whole entry, the tested form may be a part): as above
Target sequence in this assay (P32121 whole entry partner, the tested form may be a part): as the sequence (P32121 whole entry partner, the tested form may be a part) above

[5] = footnote 1: Relative EC50 was measured, read-out: Assay 3b Relative EC50

EC50 (S1P1 [1])	EC50 (S1P1 [2])	EC50 (hS1P1R (hEdg1))	EC50 (S1P1 [3]; relative EC50 was measured (footnote 1), read-out: Assay 3b Relative EC50)	EC50 (S1P1 [3]; read-out: Assay 3b EC50)	EC50 (S1P1 [3]; [5])	EC50 (S1P1 [4])	SMILES
≤ 0.1 µM	≤ 0.1 µM			0.5 to 1 µM			NCC(O)COc1cc(Cl)c(-c2noc(-c3cn4cc(C(F)(F)F)cc(Cl)c4n3)n2)cc1Cl (centres unmarked) [Example 226, 1-amino-3-[(2,5-dichloro-4-{5-[8-chloro-6-(trifluoromethyl)imidazo[1,2-a]pyridin-2-yl]-1,2,4-oxadiazol-3-yl}phenyl)oxy]propan-2-ol]
≤ 0.1 µM	≤ 0.1 µM			0.1 to 0.5 µM			O=C(O)CCc1cc(Cl)c(-c2nc(-c3cn4cc(C(F)(F)F)cc(Br)c4n3)no2)cc1F [Example 238, 3-(4-{3-[8-bromo-6-(trifluoromethyl)imidazo[1,2-a]pyridin-2-yl]-1,2,4-oxadiazol-5-yl}-5-chloro-2-fluorophenyl)propanoic acid]
≤ 0.1 µM	≤ 0.1 µM			0.1 to 0.5 µM		≤ 0.1 µM	CS(=O)(=O)Nc1ccc(-c2nnc(-c3cn4cc(C(F)(F)F)cc(Cl)c4n3)s2)c(Cl)c1 [Example 239, N-(3-chloro-4-{5-[8-chloro-6-(trifluoromethyl)imidazo[1,2-a]pyridin-2-yl]-1,3,4-thiadiazol-2-yl}phenyl)methanesulfonamide]
0.1 to 0.5 µM	≤ 0.1 µM	0.1 to 0.5 µM		0.5 to 1 µM			NCCOc1ccc(-c2nnc(-c3cn4cc(C(F)(F)F)cc(Cl)c4n3)s2)c(Cl)c1 [Example 244, 2-[(3-chloro-4-{5-[8-chloro-6-(trifluoromethyl)imidazo[1,2-a]pyridin-2-yl]-1,3,4-thiadiazol-2-yl}phenyl)oxy]ethanamine]
≤ 0.1 µM	≤ 0.1 µM	0.5 to 1 µM		0.1 to 0.5 µM			CC(CO)Oc1ccc(-c2noc(-c3cn4cc(C(F)(F)F)cc(Cl)c4n3)n2)c(Cl)c1 (centres unmarked) [Example 256, 2-[(3-chloro-4-{5-[8-chloro-6-(trifluoromethyl)imidazo[1,2-a]pyridin-2-yl]-1,2,4-oxadiazol-3-yl}phenyl)oxy]propan-1-ol]
≤ 0.1 µM	≤ 0.1 µM			0.1 to 0.5 µM		0.1 to 0.5 µM	NCCOc1ccc(-c2noc(-c3cn4cc(C(F)(F)F)cc(Cl)c4n3)n2)c(Cl)c1 [Example 257, 2-[(3-chloro-4-{5-[8-chloro-6-(trifluoromethyl)imidazo[1,2-a]pyridin-2-yl]-1,2,4-oxadiazol-3-yl}phenyl)oxy]ethanamine]
≤ 0.1 µM	≤ 0.1 µM	≤ 0.1 µM		0.1 to 0.5 µM			CC(CO)Oc1cc(Cl)c(-c2noc(-c3cn4cc(C(F)(F)F)cc(Cl)c4n3)n2)cc1F (centres unmarked) [Example 259, 2-[(5-chloro-4-{5-[8-chloro-6-(trifluoromethyl)imidazo[1,2-a]pyridin-2-yl]-1,2,4-oxadiazol-3-yl}-2-fluorophenyl)oxy]propan-1-ol]
≤ 0.1 µM	≤ 0.1 µM	0.1 to 0.5 µM		0.1 to 0.5 µM			O=C(O)CCc1ccc(-c2nnc(-c3cn4cc(C(F)(F)F)cc(Cl)c4n3)s2)c(Cl)c1 [Example 283, 3-(3-chloro-4-{5-[8-chloro-6-(trifluoromethyl)imidazo[1,2-a]pyridin-2-yl]-1,3,4-thiadiazol-2-yl}phenyl)propanoic acid]
≤ 0.1 µM	≤ 0.1 µM	1 to 5 µM		0.1 to 0.5 µM			Cc1c(I)ccc2nc(-c3nc(-c4cc(F)c(CCC(=O)O)cc4Cl)no3)cn12 [Example 300, 3-{5-chloro-2-fluoro-4-[5-(6-iodo-5-methylimidazo[1,2-a]pyridin-2-yl)-1,2,4-oxadiazol-3-yl]phenyl}propanoic acid]

Continued, compound first:

SMILES	EC50 (S1P1 [1])	EC50 (S1P1 [2])	EC50 (hS1P1R (hEdg1))	EC50 (S1P1 [3]; relative EC50 was measured (footnote 1), read-out: Assay 3b Relative EC50)	EC50 (S1P1 [3]; read-out: Assay 3b EC50)	EC50 (S1P1 [3]; [5])	EC50 (S1P1 [4])
O=C(O)CCc1ccc(-c2noc(-c3cn4cc(C(F)(F)F)cc(Cl)c4n3)n2)cc1Cl [Entry 7]	≤ 0.1 µM	≤ 0.1 µM	1 to 5 µM	0.1 to 0.5 µM			
Cc1cc(C2CC2C(=O)O)c(F)cc1-c1noc(-c2cn3cc(C(F)(F)F)cc(Cl)c3n2)n1 (centres unmarked) [Example 79, 2-(4-{5-[8-chloro-6-(trifluoromethyl)imidazo[1,2-a]pyridin-2-yl]-1,2,4-oxadiazol-3-yl}-2-fluoro-5-methylphenyl)cyclopropanecarboxylic acid]	≤ 0.1 µM	≤ 0.1 µM	0.5 to 1 µM		0.1 to 0.5 µM		
C[C@@H](CO)Oc1cc(Cl)c(-c2noc(-c3cn4cc(C(F)(F)F)cc(Cl)c4n3)n2)cc1F [Example 96, (2S)-2-[(5-chloro-4-{5-[8-chloro-6-(trifluoromethyl)imidazo[1,2-a]pyridin-2-yl]-1,2,4-oxadiazol-3-yl}-2-fluorophenyl)oxy]propan-1-ol]	≤ 0.1 µM	≤ 0.1 µM	≤ 0.1 µM		0.1 to 0.5 µM		
O=C(O)C1CN(Cc2ccc(-c3noc(-c4cn5cc(C(F)(F)F)cc(Br)c5n4)n3)c(Cl)c2)C1 [Example 132, 1-[(4-{5-[8-bromo-6-(trifluoromethyl)imidazo[1,2-a]pyridin-2-yl]-1,2,4-oxadiazol-3-yl}-3-chlorophenyl)methyl]azetidine-3-carboxylic acid]	0.1 to 0.5 µM	≤ 0.1 µM			1 to 5 µM		
O=C(O)CC(O)c1ccc(-c2noc(-c3cn4cc(C(F)(F)F)cc(Cl)c4n3)n2)c(Cl)c1 (centres unmarked) [Example 139, 3-(3-chloro-4-{5-[8-chloro-6-(trifluoromethyl)imidazo[1,2-a]pyridin-2-yl]-1,2,4-oxadiazol-3-yl}phenyl)-3-hydroxypropanoic acid]	≤ 0.1 µM	≤ 0.1 µM				0.1 to 0.5 µM	
CC(C)Cc1cc(Cl)c2nc(-c3nc(-c4cc(F)c(CCC(=O)O)cc4Cl)no3)cn2c1 [Example 149, 3-(5-chloro-4-{5-[8-chloro-6-(2-methylpropyl)imidazo[1,2-a]pyridin-2-yl]-1,2,4-oxadiazol-3-yl}-2-fluorophenyl)propanoic acid]	≤ 0.1 µM	≤ 0.1 µM				≤ 0.1 µM	
Cc1cc(C(C)CC(=O)O)ccc1-c1noc(-c2cn3cc(C(F)(F)F)cc(Br)c3n2)n1 (centres unmarked) [Example 153, 3-(4-{5-[8-bromo-6-(trifluoromethyl)imidazo[1,2-a]pyridin-2-yl]-1,2,4-oxadiazol-3-yl}-3-methylphenyl)butanoic acid]	0.1 to 0.5 µM	≤ 0.1 µM				0.5 to 1 µM	
Cc1cc(-c2noc(-c3cn4cc(C(F)(F)F)cc(Cl)c4n3)n2)cc(C)c1OCC(O)CO (centres unmarked) [Example 161, 3-[(4-{5-[8-chloro-6-(trifluoromethyl)imidazo[1,2-a]pyridin-2-yl]-1,2,4-oxadiazol-3-yl}-2,6-dimethylphenyl)oxy]propane-1,2-diol]	≤ 0.1 µM	≤ 0.1 µM	≤ 0.1 µM		0.1 to 0.5 µM		
CC(CC(=O)O)c1ccc(-c2noc(-c3cn4cc(C(F)(F)F)cc(Cl)c4n3)n2)c(Cl)c1 (centres unmarked) [Example 172, 3-(3-chloro-4-{5-[8-chloro-6-(trifluoromethyl)imidazo[1,2-a]pyridin-2-yl]-1,2,4-oxadiazol-3-yl}phenyl)butanoic acid]	0.1 to 0.5 µM	≤ 0.1 µM			1 to 5 µM		
